Assay results reported in US5326787A, “Cycloalkyl N-hydroxy derivatives having lipoxygenase inhibitory activity” (Abbott Laboratories, priority 1993, dated 1994).

Assays:
[1] = system: biosynthesis of leukotrienes; test: Inhibition of leukotriene biosynthesis in vivo after oral administration, rat peritoneal anaphylaxis model; conditions: percent inhibition vs mean of control group, oral gavage 100 μmoles/kg one hour prior to antigen challenge, peritoneal fluids 15 minutes after challenge
Description: Inhibition of the biosynthesis of leukotrienes in vivo after oral administration of compound was determined using a rat peritoneal anaphylaxis model in a similar manner as that described by Young and coworkers (Young, P. R.; Dyer, R. D.; Carter, G. W. Fed. Proc., Fed. Am. Soc. Exp. Biol. 1985, 44, 1185). In this model rats were injected intraperitoneally (ip) with rabbit antibody to bovine serum albumin (BSA) and three hours later injected ip with BSA to induce an antigen-antibody response. Rats were sacrificed 15 minutes after this challenge and the peritoneal fluids were collected and analyzed for leukotriene levels. Test compounds were administered by gavage one hour prior to the antigen challenge. Percent inhibition values were determined by comparing the treatment group to the mean of the control group.

5-Lipoxygenase = target: T1, 5-Lipoxygenase (Homo sapiens, UniProt P09917); test: Calcium ionophore-induced LTB4 biosynthesis in human whole blood; assay type: cell-based; conditions: human heparinized whole blood, 15 min preincubation at 37° C., A23187 8.3 μM, 30 min, LTB4 by radioimmunoassay; read-out: IC50 against 5-Lipoxygenase from Stimulated LTB4 Formation in Human Whole Blood
T1 construct: from tissue; host or cells: human heparinized whole blood (endogenous enzyme of the blood leukocytes)
T1 sequence (P09917 1-674): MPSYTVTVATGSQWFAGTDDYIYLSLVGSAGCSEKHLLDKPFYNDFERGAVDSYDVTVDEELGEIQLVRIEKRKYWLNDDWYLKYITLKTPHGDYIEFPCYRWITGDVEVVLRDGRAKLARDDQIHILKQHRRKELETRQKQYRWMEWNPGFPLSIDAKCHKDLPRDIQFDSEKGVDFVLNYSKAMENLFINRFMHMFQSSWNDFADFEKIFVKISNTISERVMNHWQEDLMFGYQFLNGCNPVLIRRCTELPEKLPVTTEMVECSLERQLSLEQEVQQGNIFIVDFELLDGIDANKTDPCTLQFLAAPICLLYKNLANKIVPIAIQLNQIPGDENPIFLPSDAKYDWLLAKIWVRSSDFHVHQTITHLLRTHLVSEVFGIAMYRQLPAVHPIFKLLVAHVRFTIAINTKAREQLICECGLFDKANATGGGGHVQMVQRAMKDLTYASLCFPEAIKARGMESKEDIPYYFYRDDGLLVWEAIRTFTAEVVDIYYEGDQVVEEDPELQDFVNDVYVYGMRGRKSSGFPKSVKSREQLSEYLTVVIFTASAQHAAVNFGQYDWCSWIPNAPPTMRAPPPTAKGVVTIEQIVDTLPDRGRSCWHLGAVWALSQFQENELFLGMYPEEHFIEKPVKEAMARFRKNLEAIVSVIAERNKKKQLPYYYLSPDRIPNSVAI
Description: Inhibition of leukotriene biosynthesis was evaluated in an assay, involving calcium ionophore-induced LTB4 biosynthesis expressed human whole blood. […] The methanol extract was analyzed for LTB4 using a commercially available radioimmunoassay.

| IC50 (5-Lipoxygenase) | SMILES | inhibition at 100 µmol/kg [1] |
| --- | --- | --- |
| < 0.3 µM | NC(=O)N(O)C[C@H]1C[C@@H]1C1CC1 (relative stereo) [Example 1, N-1-(trans-2-cyclopropylcyclopropylmethyl)-N-hydroxyurea] | 96% |
| 0.9 µM | NC(=O)N(O)CC1CCC1 [Example 2, N-cyclobutylmethyl-N-hydroxyurea] | 92% |
| 0.7 µM | NC(=O)N(O)CC1CCCC1 [Example 3, N-cyclopentylmethyl-N-hydroxyurea] | 83% |
| 1.1 µM | NC(=O)N(O)CC1CCCCC1 [Example 4, N-hydroxy-N-1-(1-cyclohexyl)methylurea] | 64% |
| < 1.5 µM | NC(=O)N(O)CC1CCCCCC1 [Example 5, N-hydroxy-N-1-(1-cycloheptyl)methylurea] |  |
